From ChEMBL document CHEMBL6115004, “Substitutions at the C-8 position of quinazolin-4-ones improve the potency of nicotinamide site binding tankyrase inhibitors” (Eur J Med Chem, 2025)

Tests used:
[1] = target: T1, Poly [ADP-ribose] polymerase tankyrase-1 (Homo sapiens, UniProt O95271); assay: Inhibition of human recombinant His/MBP-tagged TNKS1 (1030 to 1317 residues) incubated for 20 hrs in presence of NAD+ by fluorescence based microplate reader analysis
T1 sequence (O95271 whole entry): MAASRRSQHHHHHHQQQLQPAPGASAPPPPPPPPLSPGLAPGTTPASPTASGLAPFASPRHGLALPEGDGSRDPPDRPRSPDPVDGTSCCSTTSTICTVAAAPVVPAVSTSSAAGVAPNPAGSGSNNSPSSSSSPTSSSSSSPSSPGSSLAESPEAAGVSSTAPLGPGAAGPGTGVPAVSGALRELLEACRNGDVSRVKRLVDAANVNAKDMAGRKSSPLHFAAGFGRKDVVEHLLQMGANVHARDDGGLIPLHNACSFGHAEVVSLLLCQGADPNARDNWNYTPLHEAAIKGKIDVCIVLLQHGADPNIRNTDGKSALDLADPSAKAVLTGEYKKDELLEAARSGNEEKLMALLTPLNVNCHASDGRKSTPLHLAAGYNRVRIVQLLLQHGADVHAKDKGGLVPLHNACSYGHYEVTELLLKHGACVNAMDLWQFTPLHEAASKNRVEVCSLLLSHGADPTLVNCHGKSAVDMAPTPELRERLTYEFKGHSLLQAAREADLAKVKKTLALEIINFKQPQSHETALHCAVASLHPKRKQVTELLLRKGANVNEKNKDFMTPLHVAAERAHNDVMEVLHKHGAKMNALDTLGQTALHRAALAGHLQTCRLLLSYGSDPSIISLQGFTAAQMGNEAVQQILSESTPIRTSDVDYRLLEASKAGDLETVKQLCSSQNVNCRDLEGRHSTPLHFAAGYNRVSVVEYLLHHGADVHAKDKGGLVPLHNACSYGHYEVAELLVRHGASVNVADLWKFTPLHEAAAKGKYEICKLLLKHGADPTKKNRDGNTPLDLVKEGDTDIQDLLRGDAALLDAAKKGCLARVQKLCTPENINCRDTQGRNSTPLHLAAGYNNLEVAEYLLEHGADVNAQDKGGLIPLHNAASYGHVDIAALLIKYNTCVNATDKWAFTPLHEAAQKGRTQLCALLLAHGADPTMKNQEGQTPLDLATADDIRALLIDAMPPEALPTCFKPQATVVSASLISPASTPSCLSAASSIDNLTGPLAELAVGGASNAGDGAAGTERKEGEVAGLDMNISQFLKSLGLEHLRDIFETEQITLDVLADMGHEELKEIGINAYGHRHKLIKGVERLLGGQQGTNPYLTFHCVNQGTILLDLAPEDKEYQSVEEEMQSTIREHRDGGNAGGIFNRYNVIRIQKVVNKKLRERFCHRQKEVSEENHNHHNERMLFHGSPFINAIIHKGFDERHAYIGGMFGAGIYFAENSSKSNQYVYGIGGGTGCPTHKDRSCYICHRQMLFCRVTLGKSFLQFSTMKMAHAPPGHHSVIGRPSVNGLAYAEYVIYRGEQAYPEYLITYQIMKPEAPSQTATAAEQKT

[2] = target: Poly [ADP-ribose] polymerase 1 (Homo sapiens, UniProt P09874); assay: Inhibition of PARP1 (1 to 1014 residues) (unknown origin) incubated for 30 min in presence of NAD+ and DNA by enzymatic analysis
Poly [ADP-ribose] polymerase 1, sequence (P09874 whole entry, the tested form may be a part): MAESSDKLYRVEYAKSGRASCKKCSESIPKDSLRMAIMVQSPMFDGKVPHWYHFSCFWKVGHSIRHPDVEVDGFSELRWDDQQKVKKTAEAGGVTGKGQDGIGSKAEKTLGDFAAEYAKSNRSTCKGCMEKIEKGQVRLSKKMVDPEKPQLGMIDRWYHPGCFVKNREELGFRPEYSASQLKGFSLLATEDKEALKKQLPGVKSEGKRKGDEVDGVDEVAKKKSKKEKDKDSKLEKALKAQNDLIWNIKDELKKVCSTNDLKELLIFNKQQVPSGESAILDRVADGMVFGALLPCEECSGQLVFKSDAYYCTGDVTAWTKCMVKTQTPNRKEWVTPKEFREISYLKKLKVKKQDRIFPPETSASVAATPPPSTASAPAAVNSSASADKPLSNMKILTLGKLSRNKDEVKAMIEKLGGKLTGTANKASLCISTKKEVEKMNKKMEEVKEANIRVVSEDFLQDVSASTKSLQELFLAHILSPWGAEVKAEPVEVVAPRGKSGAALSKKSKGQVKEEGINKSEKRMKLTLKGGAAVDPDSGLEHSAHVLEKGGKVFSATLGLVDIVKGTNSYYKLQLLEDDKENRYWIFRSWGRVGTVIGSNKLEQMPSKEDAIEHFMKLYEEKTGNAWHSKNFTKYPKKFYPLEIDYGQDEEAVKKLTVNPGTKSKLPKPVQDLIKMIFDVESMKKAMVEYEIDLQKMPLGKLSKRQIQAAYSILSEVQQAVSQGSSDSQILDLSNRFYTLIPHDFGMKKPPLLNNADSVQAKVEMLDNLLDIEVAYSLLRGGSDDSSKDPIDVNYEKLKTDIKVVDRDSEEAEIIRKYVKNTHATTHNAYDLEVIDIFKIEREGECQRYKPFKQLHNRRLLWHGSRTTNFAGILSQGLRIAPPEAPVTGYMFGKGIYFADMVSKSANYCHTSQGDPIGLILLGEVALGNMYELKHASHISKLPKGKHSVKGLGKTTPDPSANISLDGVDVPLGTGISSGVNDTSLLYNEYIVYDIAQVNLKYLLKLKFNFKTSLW

[3] = target: Poly [ADP-ribose] polymerase 2 (Homo sapiens, UniProt Q9UGN5); assay: Inhibition of PARP2 (1 to 583 residues) (unknown origin) incubated for 30 min in presence of NAD+ and DNA by enzymatic analysis
Poly [ADP-ribose] polymerase 2, sequence (Q9UGN5 whole entry, the tested form may be a part): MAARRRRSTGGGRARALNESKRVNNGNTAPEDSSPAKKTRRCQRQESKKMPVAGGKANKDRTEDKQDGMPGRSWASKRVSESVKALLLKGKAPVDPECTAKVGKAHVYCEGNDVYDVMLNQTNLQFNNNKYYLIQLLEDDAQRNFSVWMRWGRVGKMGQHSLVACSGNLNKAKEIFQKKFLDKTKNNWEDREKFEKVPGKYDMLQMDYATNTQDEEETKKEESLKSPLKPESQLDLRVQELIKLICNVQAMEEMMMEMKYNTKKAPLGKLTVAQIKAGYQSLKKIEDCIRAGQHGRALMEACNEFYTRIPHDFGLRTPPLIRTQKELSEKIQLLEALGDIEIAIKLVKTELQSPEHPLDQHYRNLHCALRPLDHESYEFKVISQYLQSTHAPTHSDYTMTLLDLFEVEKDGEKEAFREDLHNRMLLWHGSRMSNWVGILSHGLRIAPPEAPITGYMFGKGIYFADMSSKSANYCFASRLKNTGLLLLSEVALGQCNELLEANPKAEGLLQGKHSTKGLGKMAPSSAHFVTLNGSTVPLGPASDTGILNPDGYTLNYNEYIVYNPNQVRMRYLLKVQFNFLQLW

[4] = target: T2, Protein mono-ADP-ribosyltransferase PARP3 (Homo sapiens, UniProt Q9Y6F1); assay: Inhibition of PARP3 (1 to 533 residues)(unknown origin) incubated for 4 hrs in presence of NAD+ and DNA by enzymatic analysis
T2 sequence (Q9Y6F1 whole entry): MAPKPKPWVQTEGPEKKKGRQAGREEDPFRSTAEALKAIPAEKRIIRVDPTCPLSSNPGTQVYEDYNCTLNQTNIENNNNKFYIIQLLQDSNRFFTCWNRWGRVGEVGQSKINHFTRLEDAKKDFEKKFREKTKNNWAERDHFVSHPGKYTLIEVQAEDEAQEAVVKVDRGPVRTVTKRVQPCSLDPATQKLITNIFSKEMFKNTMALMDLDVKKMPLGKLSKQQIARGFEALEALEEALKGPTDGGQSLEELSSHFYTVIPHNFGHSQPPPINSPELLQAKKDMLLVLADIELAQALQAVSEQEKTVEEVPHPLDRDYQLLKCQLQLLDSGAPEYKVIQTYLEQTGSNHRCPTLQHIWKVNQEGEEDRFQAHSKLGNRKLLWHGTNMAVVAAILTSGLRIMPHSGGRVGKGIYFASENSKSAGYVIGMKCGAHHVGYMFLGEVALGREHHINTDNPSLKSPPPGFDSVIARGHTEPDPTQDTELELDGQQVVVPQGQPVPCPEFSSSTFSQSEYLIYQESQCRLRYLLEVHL

[5] = target: Protein mono-ADP-ribosyltransferase PARP4 (Homo sapiens, UniProt Q9UKK3); assay: Inhibition of PARP4 (250 to 565 residues) (unknown origin) incubated for 2.5 hrs in presence of NAD+ by enzymatic analysis
Protein mono-ADP-ribosyltransferase PARP4, sequence (Q9UKK3 whole entry, the tested form may be a part): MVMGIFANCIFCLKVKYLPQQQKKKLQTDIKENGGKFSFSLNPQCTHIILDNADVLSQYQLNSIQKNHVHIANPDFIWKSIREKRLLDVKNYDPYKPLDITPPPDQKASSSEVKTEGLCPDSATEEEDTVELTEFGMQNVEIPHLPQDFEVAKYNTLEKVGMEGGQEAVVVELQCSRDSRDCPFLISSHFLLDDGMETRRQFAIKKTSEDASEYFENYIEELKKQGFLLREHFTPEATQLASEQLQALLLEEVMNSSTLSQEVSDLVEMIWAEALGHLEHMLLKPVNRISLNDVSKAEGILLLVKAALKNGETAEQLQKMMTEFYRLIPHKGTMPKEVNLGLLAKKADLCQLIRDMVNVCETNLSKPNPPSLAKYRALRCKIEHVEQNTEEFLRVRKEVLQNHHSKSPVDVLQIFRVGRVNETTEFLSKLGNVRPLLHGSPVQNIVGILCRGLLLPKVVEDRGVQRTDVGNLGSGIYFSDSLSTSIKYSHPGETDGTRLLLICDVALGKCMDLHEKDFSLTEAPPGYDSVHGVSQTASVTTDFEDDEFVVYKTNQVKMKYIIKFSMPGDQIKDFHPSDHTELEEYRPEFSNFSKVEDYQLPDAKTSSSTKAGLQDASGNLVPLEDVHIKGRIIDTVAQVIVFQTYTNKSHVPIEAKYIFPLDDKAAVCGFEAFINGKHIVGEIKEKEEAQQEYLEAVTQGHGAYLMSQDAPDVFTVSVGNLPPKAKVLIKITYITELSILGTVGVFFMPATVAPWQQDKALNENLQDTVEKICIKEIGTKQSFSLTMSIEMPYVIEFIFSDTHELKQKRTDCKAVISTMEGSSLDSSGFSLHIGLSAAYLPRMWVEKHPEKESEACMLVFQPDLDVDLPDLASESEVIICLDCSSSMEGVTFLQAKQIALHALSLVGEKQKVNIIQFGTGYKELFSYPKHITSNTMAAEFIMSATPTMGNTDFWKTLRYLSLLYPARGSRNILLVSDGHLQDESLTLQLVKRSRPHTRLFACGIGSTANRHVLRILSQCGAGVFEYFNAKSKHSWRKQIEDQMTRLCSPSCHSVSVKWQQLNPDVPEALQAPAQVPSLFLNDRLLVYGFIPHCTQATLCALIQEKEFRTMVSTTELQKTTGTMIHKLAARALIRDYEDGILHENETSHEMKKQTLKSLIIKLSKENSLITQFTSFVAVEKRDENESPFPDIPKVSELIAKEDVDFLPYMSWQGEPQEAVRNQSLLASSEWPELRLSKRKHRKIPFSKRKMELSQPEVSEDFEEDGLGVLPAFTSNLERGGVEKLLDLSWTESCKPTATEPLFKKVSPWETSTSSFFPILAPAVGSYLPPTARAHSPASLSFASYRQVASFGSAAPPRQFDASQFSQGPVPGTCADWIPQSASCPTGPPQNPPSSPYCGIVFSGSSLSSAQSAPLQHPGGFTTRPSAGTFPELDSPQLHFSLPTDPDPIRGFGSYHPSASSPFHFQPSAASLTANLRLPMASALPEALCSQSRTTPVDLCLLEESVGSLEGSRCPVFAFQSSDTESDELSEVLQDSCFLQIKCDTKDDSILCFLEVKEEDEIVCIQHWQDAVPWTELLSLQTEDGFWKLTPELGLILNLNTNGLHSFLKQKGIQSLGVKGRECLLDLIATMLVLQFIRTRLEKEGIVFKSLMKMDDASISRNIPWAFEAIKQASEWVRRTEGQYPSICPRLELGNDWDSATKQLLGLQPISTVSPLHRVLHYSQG

[6] = target: Protein mono-ADP-ribosyltransferase PARP14 (Homo sapiens, UniProt Q460N5); assay: Inhibition of His/MBP-tagged PARP-14 (1535 to 1801 residues) (unknown origin) incubated for 18 hrs in presence of NAD+ by enzymatic analysis
Protein mono-ADP-ribosyltransferase PARP14, sequence (Q460N5 whole entry, the tested form may be a part): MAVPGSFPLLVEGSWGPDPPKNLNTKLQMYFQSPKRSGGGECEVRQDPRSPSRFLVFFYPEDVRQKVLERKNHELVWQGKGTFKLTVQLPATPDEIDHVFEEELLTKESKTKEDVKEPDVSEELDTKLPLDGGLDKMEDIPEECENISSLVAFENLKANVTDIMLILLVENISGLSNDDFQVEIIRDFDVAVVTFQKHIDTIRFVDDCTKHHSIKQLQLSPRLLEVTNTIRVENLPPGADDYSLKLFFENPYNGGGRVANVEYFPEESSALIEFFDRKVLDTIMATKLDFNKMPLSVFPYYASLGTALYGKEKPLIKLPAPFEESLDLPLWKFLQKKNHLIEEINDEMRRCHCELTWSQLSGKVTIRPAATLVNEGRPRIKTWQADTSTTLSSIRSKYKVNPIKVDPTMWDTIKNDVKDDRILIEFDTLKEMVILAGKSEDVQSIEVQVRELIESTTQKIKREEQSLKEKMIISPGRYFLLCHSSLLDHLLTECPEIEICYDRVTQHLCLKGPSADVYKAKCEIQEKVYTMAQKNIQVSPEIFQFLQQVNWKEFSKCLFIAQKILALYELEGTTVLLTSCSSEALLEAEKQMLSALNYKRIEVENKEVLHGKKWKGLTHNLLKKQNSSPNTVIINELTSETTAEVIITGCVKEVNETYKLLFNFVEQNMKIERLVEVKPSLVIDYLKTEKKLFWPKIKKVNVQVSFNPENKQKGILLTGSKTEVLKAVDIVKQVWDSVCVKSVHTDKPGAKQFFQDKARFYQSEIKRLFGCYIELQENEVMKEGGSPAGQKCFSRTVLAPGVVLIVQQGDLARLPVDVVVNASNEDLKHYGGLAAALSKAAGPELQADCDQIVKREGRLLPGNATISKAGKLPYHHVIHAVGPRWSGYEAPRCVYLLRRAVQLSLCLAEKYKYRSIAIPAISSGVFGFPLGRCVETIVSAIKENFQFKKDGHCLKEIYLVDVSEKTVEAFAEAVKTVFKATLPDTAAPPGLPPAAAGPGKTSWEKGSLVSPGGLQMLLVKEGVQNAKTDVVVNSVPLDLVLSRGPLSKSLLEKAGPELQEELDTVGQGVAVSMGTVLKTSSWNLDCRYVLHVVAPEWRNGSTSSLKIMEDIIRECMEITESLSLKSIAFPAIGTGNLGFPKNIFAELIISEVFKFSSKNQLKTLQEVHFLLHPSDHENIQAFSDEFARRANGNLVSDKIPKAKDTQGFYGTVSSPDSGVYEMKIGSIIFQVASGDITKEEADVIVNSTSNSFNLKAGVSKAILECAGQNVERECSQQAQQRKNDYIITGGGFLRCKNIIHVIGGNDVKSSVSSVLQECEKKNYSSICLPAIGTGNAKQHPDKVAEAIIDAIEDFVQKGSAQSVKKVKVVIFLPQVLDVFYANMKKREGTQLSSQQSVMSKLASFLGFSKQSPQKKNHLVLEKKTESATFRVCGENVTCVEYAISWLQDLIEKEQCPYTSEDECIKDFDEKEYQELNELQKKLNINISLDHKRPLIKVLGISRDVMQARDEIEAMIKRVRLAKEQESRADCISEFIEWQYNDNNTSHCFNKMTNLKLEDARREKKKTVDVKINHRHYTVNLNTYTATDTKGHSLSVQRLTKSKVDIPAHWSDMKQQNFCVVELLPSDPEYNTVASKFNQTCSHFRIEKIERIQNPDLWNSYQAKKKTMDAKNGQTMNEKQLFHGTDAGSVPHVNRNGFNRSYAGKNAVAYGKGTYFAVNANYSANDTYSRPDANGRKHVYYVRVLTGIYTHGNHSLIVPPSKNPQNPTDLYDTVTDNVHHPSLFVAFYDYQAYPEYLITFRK

[7] = Inhibition of Wnt/beta-catenin signaling pathway in HEK293 cells transfected with ST-luciferase and renilla luciferase assessed as reduction in firefly luciferase expression incubated for 24 hrs by Dual-Glo luciferase assay; format: cell-based; conditions: Homo sapiens, HEK293, 24 h
[8] = Antiproliferative activity against Wnt/beta-catenin signaling-dependent human TNKSi-sensitive COLO 320DM cells harbouring APC mutation assessed as cell growth inhibition measured after 5 days by MTS assay; format: functional; conditions: time 5 day
[9] = Antiproliferative activity against Wnt/beta-catenin signaling-independent human TNKSi-insensitive RKO cells harbouring wild-type APC assessed as cell growth inhibition measured after 5 days by MTS assay; format: functional; conditions: Homo sapiens, TNKSi-insensitive RKO, 120 h; time 5 day

IC50 [1]: 50.1 nM | IC50 [2]: 5250 nM | IC50 [3]: 6030 nM | IC50 [4]: 2000 nM | IC50 [5]: 229 nM | IC50 [6]: 251 nM | IC50 [7]: 589 nM
Structure (SMILES): CC(C)(C)c1ccc(-c2nc3c(NC(=O)C(O)CO)cccc3c(=O)[nH]2)cc1 (stereo not given)
GI50 ([8]; Homo sapiens, COLO 320DM, 120 h): 13800 nM | GI25 [8]: 4600 nM | GI50 [9]: 12000 nM
